The values that follow come from US20150259429A1, “CLUSTER OF DIFFERENTIATION 36 (CD36) AS A THERAPEUTIC TARGET FOR HIV INFECTION” (INSTITUT CURIE, priority 2012, published 2015).

Where a SMILES comes first, the peptide text is derived from it. [ ]: non-standard residue; d: D form. dTrp(2-Me) = Cc1[nH]c2ccccc2c1C[C@@H](N)C(=O)O

Series [1] concerns CD36. Particulars: binding site competition; cited from earlier work.
Series [2] relates to CD36. The note with it: cited from earlier work.
Series [3] relates to HIV-1-infected primary macrophages. Description: p24 Gag release by HIV-1-infected macrophages after siRNA transfection (ELISA). The note with it: Tsg101 knock down (positive control) compared with CD36 silencing.
For series [4], the target named is CD36 (human), on primary macrophages or HeLa-CD36 cells (human) (UniProt P16671). Description: cell-based or functional assay.
Series [5] has as its system HIV-1-infected macrophages. The series can be described thus: CD36 mAb blocking assay: p24 in supernatant and cell lysate of HIV-1-infected macrophages (ELISA). The note with it: overnight exposure, comparison with CD36 ligands (FIG. 15E). For orientation: ELISA stands for enzyme-linked immunosorbent assay.

As to `Cc1[nH]c2ccccc2c1C[C@@H](NC(=O)[C@@H](N)Cc1cnc[nH]1)C(=O)N[C@@H](C)C(=O)N[C@@H](Cc1c[nH]c2ccccc12)C(=O)N[C@H](Cc1ccccc1)C(=O)N[C@@H](CCCCN)C(N)=O` [Hexarelin, hexarelin] (H-H[dTrp(2-Me)]AW[dF]K-NH2), the “CD36-mediated uptake of oxLDLs” value with CD36 [1] is “blocks”. Take `Cc1c(C)c2c(c(C)c1O)CC[C@@](C)(CCC[C@H](C)CCC[C@H](C)CCCC(C)C)O2` [α-tocopherol]: the “uptake of oxLDLs into macrophages” value in the series on CD36 [2] was “reduce”. In the series on CD36 [2] (macrophages), the “expression of CD36” value is listed as “reduce”. As for “CAGUUUAUCAUUCAAGUGUAA (listed as RNA, chemistry not given here) [Tsg101]”, the “extent of the inhibition of p24 release” value in series [3] was “similar”. Take “CD36-specific mAb clone CLB-IVC7 (Immunotools) (antibody)”: the p24 release in the culture supernatant of HIV-1-infected macrophages (ELISA), titration of the mAb in series [4] amounted to 32 ng/mL. With “Trombospondin-1: endogenous ligand of CD36”, the “release of p24” value in series [5] is listed as “none of the two ligands reduced”. As to “type-I Collagen: endogenous ligand of CD36, purchased from Sigma”, the “release of p24” value in series [5] is listed as “none of the two ligands reduced”.
